Laboratory results as given in patent US11806323B2, “Topical anesthetics” (PTC Innovations, LLC, priority 2022, dated 2023).
pIC50: −log10 of the molar value. Like-named read-outs stand apart in the source and are kept apart here.

Experiments:
[1] = target: T1, Nav1.7 (Homo sapiens, UniProt Q15858); assay: Patch clamp testing, Nav1.7 ion channel inhibition (SyncroPatch 384PE); assay type: cell-based
T1 construct: ChanTest Corp; host or cells: CHO cells (Chinese hamster)
Experimental: An examination of the in vitro effects of the compounds consistent with the present disclosure on ion channels Nav1.5 (a sodium voltage-gated channel alpha subunit found predominantly in cardiac muscle cells) and Nav1.7 (a sodium voltage-gated channel alpha subunit normally expressed in high levels in nociceptive pain neurons at dorsal root ganglion (DRG) and trigeminal ganglion and in sympathetic ganglion neurons) was performed using adult epithelial (ovarian) tissue CHO cells of Chinese hamsters (C. griseus) […] transfected with human ion channel cDNAs (ATCC, Manassas, VA; ChanTest Corp., Cleveland, OH). Cells were cultured in Ham's F-12 medium supplemented with 10% fetal bovine serum, 100 U/mL penicillin G sodium, 100 μg/mL streptomycin sulfate, and 500 μg/mL G418 aminoglycoside antibiotic.
(§1) Each compound was analyzed at concentrations of 1000 μM, 300 μM, 100 μM, 30 μM, 10 μM, 3 μM, 1 μM, and 0.3 μM. […] All tested compound formulations contained 0.3% DMSO. Each concentration of each compound was loaded into a well of a 384-well polypropylene compound plate using an automated liquid handling system (Integra Assist Plus, Integra) and then placed in the plate well of SyncroPatch 384PE (SP384PE; Nanion Technologies, Livingston, NJ) immediately before application of the cells.
Observed IC50 values of the channel current inhibition for each test article are provided in Table 8 (Nav1.5 ion channel inhibition) and Table 9 (Nav1.7 ion channel inhibition).

[2] = target: T2, Nav1.5 (Homo sapiens, UniProt Q14524); assay: Patch clamp testing, Nav1.5 ion channel inhibition (SyncroPatch 384PE); assay type: cell-based
T2 construct: ChanTest Corp; host or cells: CHO cells (Chinese hamster)
Experimental: Cells were cultured in Ham's F-12 medium supplemented with 10% fetal bovine serum, 100 U/mL penicillin G sodium, 100 μg/mL streptomycin sulfate, and 500 μg/mL G418 aminoglycoside antibiotic.
as §1

[3] = TP1A = Tonic Block, CHO cells transfected with human ion channel cDNA, 0.3% DMSO, read-out: Inhibition of Nav1.7 Ion Channel IC50, TP1A
[4] = TP2A = Inactivated State-Dependent Block, CHO cells transfected with human ion channel cDNA, 0.3% DMSO, read-out: Inhibition of Nav1.7 Ion Channel IC50, TP2A
[5] = TP25B = Use-Dependent Block, CHO cells transfected with human ion channel cDNA, 0.3% DMSO, read-out: Inhibition of Nav1.7 Ion Channel IC50, TP25B
[6] = Inhibition of Nav1.5 Ion Channel IC50, TP1A, TP1A = Tonic Block, CHO cells transfected with human ion channel cDNA, 0.3% DMSO
[7] = Inhibition of Nav1.5 Ion Channel IC50, TP2A, TP2A = Inactivated State-Dependent Block, CHO cells transfected with human ion channel cDNA, 0.3% DMSO
[8] = Inhibition of Nav1.5 Ion Channel IC50, TP25B, TP25B = Use-Dependent Block, CHO cells transfected with human ion channel cDNA, 0.3% DMSO
[9] = read-out: Inhibition of Nav1.7 Ion Channel IC50, TP25B, TP25B = Use-Dependent Block, CHO cells transfected with human ion channel cDNA, 0.3% DMSO

T1 sequence (Q15858 whole entry): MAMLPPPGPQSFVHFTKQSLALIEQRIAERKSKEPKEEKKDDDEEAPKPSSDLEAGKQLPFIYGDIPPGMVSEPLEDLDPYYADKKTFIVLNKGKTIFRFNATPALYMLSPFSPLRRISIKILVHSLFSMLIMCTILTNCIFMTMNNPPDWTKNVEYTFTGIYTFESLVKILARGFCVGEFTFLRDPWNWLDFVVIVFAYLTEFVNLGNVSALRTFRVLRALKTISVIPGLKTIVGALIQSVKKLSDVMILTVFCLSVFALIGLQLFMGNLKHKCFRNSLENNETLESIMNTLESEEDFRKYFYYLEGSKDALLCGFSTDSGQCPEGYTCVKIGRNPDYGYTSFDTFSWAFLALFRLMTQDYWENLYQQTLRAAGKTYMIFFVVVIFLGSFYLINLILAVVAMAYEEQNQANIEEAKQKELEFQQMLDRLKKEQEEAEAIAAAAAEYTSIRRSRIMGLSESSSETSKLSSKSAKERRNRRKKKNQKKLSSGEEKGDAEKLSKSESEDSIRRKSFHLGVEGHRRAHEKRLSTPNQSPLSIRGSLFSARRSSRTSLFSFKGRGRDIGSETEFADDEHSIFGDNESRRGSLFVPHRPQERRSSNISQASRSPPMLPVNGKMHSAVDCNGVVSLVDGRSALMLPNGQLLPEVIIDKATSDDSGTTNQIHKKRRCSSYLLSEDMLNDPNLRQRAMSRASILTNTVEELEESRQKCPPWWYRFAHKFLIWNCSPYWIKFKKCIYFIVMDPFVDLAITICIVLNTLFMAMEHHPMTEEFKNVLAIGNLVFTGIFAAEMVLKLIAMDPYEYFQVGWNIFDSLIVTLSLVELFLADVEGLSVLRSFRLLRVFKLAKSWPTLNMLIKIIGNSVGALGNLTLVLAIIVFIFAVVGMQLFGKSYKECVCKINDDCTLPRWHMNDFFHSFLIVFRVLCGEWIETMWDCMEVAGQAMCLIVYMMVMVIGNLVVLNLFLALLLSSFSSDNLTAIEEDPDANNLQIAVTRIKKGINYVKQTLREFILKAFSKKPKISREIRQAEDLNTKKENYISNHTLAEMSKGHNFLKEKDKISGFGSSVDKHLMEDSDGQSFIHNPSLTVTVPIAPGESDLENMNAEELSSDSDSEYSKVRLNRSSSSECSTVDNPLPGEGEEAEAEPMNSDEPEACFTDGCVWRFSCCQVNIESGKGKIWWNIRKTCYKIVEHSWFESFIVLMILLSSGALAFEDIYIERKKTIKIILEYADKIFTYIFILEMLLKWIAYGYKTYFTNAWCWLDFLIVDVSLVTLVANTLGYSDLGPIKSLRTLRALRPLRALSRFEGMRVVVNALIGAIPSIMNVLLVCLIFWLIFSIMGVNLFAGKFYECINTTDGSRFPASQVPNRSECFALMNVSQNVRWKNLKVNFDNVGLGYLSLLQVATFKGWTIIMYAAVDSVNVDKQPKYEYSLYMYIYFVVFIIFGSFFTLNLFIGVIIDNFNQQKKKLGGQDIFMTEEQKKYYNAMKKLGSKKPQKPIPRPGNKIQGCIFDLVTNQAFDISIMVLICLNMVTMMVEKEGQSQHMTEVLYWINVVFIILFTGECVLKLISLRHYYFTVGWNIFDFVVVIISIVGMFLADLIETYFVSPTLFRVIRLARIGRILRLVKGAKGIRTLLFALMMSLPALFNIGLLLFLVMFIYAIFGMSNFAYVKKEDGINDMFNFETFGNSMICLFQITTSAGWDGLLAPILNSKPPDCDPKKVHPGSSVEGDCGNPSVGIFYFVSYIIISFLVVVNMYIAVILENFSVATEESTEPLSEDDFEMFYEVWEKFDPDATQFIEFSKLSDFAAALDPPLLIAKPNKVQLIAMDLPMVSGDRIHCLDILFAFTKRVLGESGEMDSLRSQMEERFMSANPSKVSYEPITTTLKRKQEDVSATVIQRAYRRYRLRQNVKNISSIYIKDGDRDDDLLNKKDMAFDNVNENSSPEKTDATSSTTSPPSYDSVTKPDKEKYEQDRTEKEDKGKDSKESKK
T2 sequence (Q14524 whole entry): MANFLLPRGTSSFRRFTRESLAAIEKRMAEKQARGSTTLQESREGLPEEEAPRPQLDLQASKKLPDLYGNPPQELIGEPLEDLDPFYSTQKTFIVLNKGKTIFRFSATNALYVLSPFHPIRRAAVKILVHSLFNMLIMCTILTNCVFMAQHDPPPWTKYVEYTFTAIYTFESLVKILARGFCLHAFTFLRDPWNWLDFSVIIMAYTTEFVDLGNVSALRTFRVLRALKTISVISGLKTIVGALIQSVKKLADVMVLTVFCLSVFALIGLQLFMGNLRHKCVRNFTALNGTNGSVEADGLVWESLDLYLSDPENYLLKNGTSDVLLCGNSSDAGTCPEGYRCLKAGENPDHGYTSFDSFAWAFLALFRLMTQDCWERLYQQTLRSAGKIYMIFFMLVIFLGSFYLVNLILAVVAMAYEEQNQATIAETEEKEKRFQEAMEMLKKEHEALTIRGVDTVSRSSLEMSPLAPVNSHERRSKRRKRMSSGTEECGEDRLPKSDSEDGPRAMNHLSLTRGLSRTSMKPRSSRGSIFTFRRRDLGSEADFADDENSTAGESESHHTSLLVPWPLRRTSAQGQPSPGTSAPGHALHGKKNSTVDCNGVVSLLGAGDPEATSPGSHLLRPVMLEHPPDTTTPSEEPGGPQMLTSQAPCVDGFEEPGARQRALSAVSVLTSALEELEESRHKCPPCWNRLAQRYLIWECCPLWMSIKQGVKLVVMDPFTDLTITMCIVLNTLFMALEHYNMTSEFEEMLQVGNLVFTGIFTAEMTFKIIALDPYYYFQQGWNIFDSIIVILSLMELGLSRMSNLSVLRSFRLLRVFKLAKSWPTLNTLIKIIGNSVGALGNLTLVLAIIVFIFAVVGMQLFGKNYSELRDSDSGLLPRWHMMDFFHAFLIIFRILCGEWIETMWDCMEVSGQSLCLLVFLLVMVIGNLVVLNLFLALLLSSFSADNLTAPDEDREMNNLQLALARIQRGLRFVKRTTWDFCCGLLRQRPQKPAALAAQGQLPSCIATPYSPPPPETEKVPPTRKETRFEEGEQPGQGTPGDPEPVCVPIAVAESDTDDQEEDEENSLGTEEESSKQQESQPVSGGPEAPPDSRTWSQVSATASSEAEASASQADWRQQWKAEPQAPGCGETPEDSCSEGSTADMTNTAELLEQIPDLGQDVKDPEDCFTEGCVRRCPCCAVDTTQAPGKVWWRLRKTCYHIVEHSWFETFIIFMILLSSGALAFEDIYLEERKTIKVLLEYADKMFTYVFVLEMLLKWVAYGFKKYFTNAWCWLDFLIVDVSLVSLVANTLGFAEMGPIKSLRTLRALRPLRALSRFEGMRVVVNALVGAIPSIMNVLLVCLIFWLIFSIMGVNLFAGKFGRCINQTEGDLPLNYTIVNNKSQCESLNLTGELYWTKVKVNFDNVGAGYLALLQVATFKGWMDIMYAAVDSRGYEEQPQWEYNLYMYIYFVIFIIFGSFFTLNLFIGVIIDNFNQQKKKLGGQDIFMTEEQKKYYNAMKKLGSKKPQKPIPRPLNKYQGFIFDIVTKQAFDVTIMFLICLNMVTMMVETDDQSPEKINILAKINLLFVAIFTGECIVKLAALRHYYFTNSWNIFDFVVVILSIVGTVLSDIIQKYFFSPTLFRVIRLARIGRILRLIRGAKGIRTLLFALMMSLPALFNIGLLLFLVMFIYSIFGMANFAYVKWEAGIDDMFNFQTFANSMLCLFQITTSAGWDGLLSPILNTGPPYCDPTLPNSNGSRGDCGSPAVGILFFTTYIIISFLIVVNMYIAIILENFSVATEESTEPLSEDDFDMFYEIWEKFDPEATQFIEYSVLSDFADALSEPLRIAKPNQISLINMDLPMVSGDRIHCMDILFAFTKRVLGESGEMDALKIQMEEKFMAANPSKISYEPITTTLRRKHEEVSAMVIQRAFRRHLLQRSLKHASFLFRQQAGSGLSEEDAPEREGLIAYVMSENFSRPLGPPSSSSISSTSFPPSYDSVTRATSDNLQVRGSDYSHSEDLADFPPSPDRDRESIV

pIC50 [1, 3]	pIC50 [1, 4]	pIC50 [1, 5]	SMILES	pIC50 [2, 6]	pIC50 [2, 7]	pIC50 [2, 8]	pIC50 [1]	pIC50 [1, 9]	pIC50 [2]
< 3.00	< 3.00	< 3.00	COc1ccc(N(C)C(=O)CN(CCN(C)C)c2ccccc2)cc1 [Compound 2290]	< 3.00	< 3.00	< 3.00			
3.25	3.33	3.31	COc1ccc(N(C)C(=O)CN(CCN(C)C)c2cccc(Cl)c2)cc1 [Compound 2291]	3.09	3.13	3.16			
3.78	3.79	3.78	COc1ccc(N(C)C(=O)CN(CCN(C)C)c2ccc(Cl)c(Cl)c2)cc1 [Compound 2292]	3.68	3.67	3.71			
< 3.00	< 3.00	< 3.00	COc1ccc(N(CCN(C)C)CC(=O)N(C)c2ccc(OC)cc2)cc1 [Compound 2294]	< 3.00	< 3.00	< 3.00			
3.58	3.64	3.68	COc1ccc(N(C)C(=O)CN(CCN(C)C)c2cccc(OC(F)(F)F)c2)cc1 [Compound 2296]	3.59	3.63	3.65			
4.13	4.18	4.26	COc1ccc(N(C)C(=O)CN(CCN(C)C)c2ccc(Cl)c(C(F)(F)F)c2)cc1 [Compound 2297]	4.02	4.04	4.14			
3.56	3.64	3.66	COc1ccc(N(C)C(=O)CN(CCN(C)C)c2cc(Cl)ccc2Cl)cc1 [Compound 2298]	3.60	3.62	3.69			
3.41	3.50	3.48	COc1ccc(N(C)C(=O)CN(CCN(C)C)c2ccc(F)c(Cl)c2)cc1 [Compound 2299]	3.29	3.35	3.30			
3.26	3.17	3.20	COc1ccc(N(C)C(=O)CN(CCN(C)C)c2cccc(Cl)c2F)cc1 [Compound 2300]	3.49	3.51	3.59			
3.51	3.56	3.63	COc1ccc(N(C)C(=O)CN(CCN(C)C)c2ccccc2C(F)(F)F)cc1 [Compound 2301]	3.58	3.62	3.81			
4.15	4.11	4.26	COc1ccc(N(C)C(=O)CN(CCN)c2ccccc2)cc1 [Compound 2302]	3.91	4.01	4.12			
4.82	4.84	4.88	COc1ccc(N(C)C(=O)CN(CCN2CCCCC2)c2ccccc2)cc1 [Compound 2303]	4.78	4.87	5.02			
< 3.00	< 3.00	< 3.00	COc1ccc(N(C)C(=O)CN(CCN2CCN(C)CC2)c2ccccc2)cc1 [Compound 2304]	< 3.00	3.06	3.17			

SMILES	pIC50 [1, 3]	pIC50 [1, 4]	pIC50 [1, 5]	pIC50 [2, 6]	pIC50 [2, 7]	pIC50 [2, 8]	pIC50 [1]	pIC50 [1, 9]	pIC50 [2]
COc1ccc(N(C)C(=O)CN(CCN(C)C)c2ccccc2OC)cc1 [Compound 2293]	< 3.00				< 3.00	< 3.00	< 3.00	< 3.00	< 3.00
COc1ccc(N(C)C(=O)CN(CCN(C)C)c2ccccc2C)cc1 [Compound 2295]	< 3.00				< 3.00	< 3.00	< 3.00	< 3.00	< 3.00
CCN(CC)CC(=O)Nc1c(C)cccc1C [Lidocaine, reference compound]	3.39	4.63	3.95						
